Results reported in patent EP4818171A1 (Apeiron Therapeutics (Hong Kong) Ltd., priority 2024, dated 2025).
Like-named read-outs stand apart in the source and are kept apart here.

What was measured:
[1] = system: HCT-116 MTAP(-/-)deleted cells; conditions: 192 h
Procedure: (§1) Only cells in the logarithmic growth phase could be used for the test. […] The cell concentration was adjusted, rendering that cells were inoculated into a 384-well plate at 40 µL per well and incubated overnight at 37°C and 5% carbon dioxide. 40 nL of the compound was added to each well to reach a final concentration of 0-10,000 nM (starting concentration 10,000 nM, 3-fold dilution, 10 points), and the cell plate with 0.1% DMSO content was incubated at 37°C and 5% carbon dioxide for 8 d. 40 µL of Cell-Titer Glo reagent was added to test cell viability.

[2] = system: LU99 MTAP(-/-)deleted cells; conditions: 144 h
Procedure: (§2) Materials and cells: LU99 MTAP deleted cell line was purchased from Kyinno Biotechnology (China); cell culture medium and fetal bovine serum were purchased from Thermo Fisher Scientific (USA); 384-well plates were purchased from PerkinElmer (USA); Cell-Titer Glo kits were purchased from Promega (USA). Cell culture: LU99 MTAP(-/-)deleted cells were cultured with medium containing 10% fetal bovine serum at 37°C in 5% carbon dioxide. Only cells in the logarithmic growth phase could be used for the test.
(§3) Test of inhibitory activity on cell proliferation: The Cell-Titer Glo kit was used to test the proliferation inhibitory activity of the compounds on LU99 MTAP(-/-)deleted cells. The cell concentration was adjusted, rendering that cells were inoculated into a 384-well plate at 40 µL per well and incubated overnight at 37°C and 5% carbon dioxide. […] 40 µL of Cell-Titer Glo reagent was added to test cell viability.

HCT-116 wild-type cells = assay: Inhibitory activity on proliferation of HCT-116 wild-type cells (Cell-Titer Glo); type: cell-based; conditions: 8 d incubation
Procedure: Cell culture: HCT-116 wild-type cells were cultured with a RPMI-1640 medium containing 10% fetal bovine serum+1% penicillin-streptomycin at 37°C in 5% carbon dioxide. Only cells in the logarithmic growth phase could be used for the test.
Test of cell proliferation activity: Cell-Titer Glo kit was used to test the proliferation inhibitory activity of the compound on HCT-116 wild-type cells. The cell concentration was adjusted, rendering that cells were inoculated into a 384-well plate at 40 µL per well and incubated overnight at 37°C and 5% carbon dioxide. 40 nL of the compound was added to each well to reach a final concentration of 0-10,000 nM (starting concentration 10,000 nM, 2-fold dilution, 10 points), and the cell plate with 0.1% DMSO content was incubated at 37°C and 5% carbon dioxide for 8 d. 40 µL of Cell-Titer Glo reagent was added to test cell viability.

[3] = system: LU99 MTAP overexpressing cells; assay: Inhibitory activity on proliferation of LU99 MTAP overexpressing cells (Cell-Titer Glo); type: cell-based; conditions: 6 d incubation
Procedure: Materials and cells: LU99 MTAP overexpressing cell line was purchased from Kyinno Biotechnology (China); cell culture medium and fetal bovine serum were purchased from Thermo Fisher Scientific (USA); 384-well plates were purchased from PerkinElmer (USA); Cell-Titer Glo kits were purchased from Promega (USA).
Cell culture: LU99 MTAP overexpressing cells were cultured with medium containing 10% fetal bovine serum at 37°C in 5% carbon dioxide. Only cells in the logarithmic growth phase could be used for the test.
Test of inhibitory activity on cell proliferation: The Cell-Titer Glo kit was used to test the proliferation inhibitory activity of the compounds on LU99 MTAP overexpressing cells. The cell concentration was adjusted, rendering that cells were inoculated into a 384-well plate at 40 µL per well and incubated overnight at 37°C and 5% carbon dioxide. 40 nL of the compound was added to each well to reach a final concentration of 0-10,000 nM (starting concentration 10,000 nM, 2.5-fold dilution, 10 points), and the cell plate with 0.2% DMSO content was incubated at 37°C and 5% carbon dioxide for 6 d. 40 µL of Cell-Titer Glo reagent was added to test cell viability.

[4] = Pharmacokinetic test in mice; type: in vivo; conditions: male, mouse, plasma, ICR mice; for bioavailability: read-out: Bioavailability (F)
Procedure: The test compounds are compounds according to examples of the present disclosure
ICR male mice N=3/group; original source: Zhejiang Vital River Laboratory Animal Technology Co., Ltd.
Single oral administration (PO) to ICR mice: The compound was weighed and dissolved with DMSO, a certain volume of polyethylene glycol 400 and water for injection (WFI) were added, and then a small volume of 1 mol/L hydrochloric acid solution was added to adjust to a clear solution. […]
Single intravenous (IV) administration to ICR mice: The compound was weighed and dissolved with DMSO, a certain volume of polyethylene glycol 400 and water for injection (WFI) were added, and then a small volume of 1 mol/L hydrochloric acid solution was added to adjust to a clear solution. The administration via tail vein injection was conducted for a total of 3 mice after fasting overnight at a dose of 3 mg/kg.
Blood was collected from the dorsalis pedis vein at approximately 30 µL/time point, anticoagulated with dipotassium ethylenediaminetetraacetate and kept on ice until plasma was separated by centrifugation (4000 g/min; 5 min; 4°C) within 1 h. The blood sampling time points were 0.0833 (intravenous injection), 0.25, 0.5, 1, 2, 4, 6, 8, and 24 h. The samples were stored in a refrigerator at -20°C.
A total of 30 µL of plasma sample (10 µL sample + 20 µL blank plasma sample) was added with 200 µL ice-cold ACN containing internal standard, vortexed for 30 s, and centrifuged at 4000 g/min for 20 min. A total of 100 µL of the supernatant was transferred to a 96-well plate, 200 µL of ultrapure water was added, vortexed for 30 s, and 5 µL or 10 µL was injected into LC-MS/MS for analysis. Table 2: Pharmacokinetic Data

[5] = system: LU99 MTAP(-/-)deleted cells; assay: Inhibitory activity on proliferation of LU99 MTAP(-/-)deleted cells (Cell-Titer Glo); conditions: Homo sapiens, Lu-99, 144 h, read-out: IC50 (nM) Lu99 MTAP(-/-)Deleted, LU99 MTAP(-/-)deleted cells, 6 d incubation, Cell-Titer Glo
Procedure: as §2, §3

[6] = system: HCT-116 MTAP(-/-)deleted cells; assay: Inhibitory activity on proliferation of HCT-116 MTAP(-/-)deleted cells (Cell-Titer Glo); conditions: Homo sapiens, HCT-116, 192 h, read-out: IC50 (nM) HCT-116 MTAP(-/-)deleted
Procedure: as §1

## CN(C(=O)c1ccc2nc(N)c3cncn3c2c1)C1COC2(CCC2)c2cc(N3CCOCC3)ncc21 (stereo not shown) [Example 6, 4-Amino-N-methyl-N-(7'-morpholinyl-3',4'-dihydrospiro[cyclobutane-1,1'-pyrano[4,3-c]pyridine]-4'-yl)imidazo[1,5-a]quinoxaline-8-carboxamide]
[1]
  IC50: 110 nM
[2]
  IC50: 88.5 nM
HCT-116 wild-type cells
  IC50: 10000 nM
[3]
  IC50: 3880 nM

## CN(C(=O)c1ccc2nc(N)c3cncn3c2c1)[C@@H]1COC2(CC2)c2cc(C(F)(F)F)ccc21 [Example 54, (S)-4-amino-N-methyl-N-(7'-(trifluoromethyl)spiro[cyclopropane-1,1'-isochroman]-4'-yl)imidazo[1,5-a]quinoxaline-8-carboxamide]
[4]; PO(30mg/kg)
  bioavailability: 86.5%
  AUC(0-t): 220 µg·h/mL
  half-life: 1.47 h
[4]; PO(100mg/kg)
  bioavailability: 48.2%
  AUC(0-t): 408 µg·h/mL
  half-life: 2.06 h
[4]; IV(3mg/kg)
  AUC(0-t): 25.4 µg·h/mL
  half-life: 2.37 h
[5]
  IC50: 8.11 nM
[6]
  IC50: 5.8 nM
HCT-116 wild-type cells; Homo sapiens, HCT-116, 192 h
  IC50: 1040 nM
[3]; Homo sapiens, Lu-99, 144 h
  IC50: 1100 nM
